Experimental data reported in PubChem BioAssay (NCI).
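Five compound concentrations were applied to cells in 96-well plates for 48 hours; endpoints were derived by simple linear interpolation of the resulting dose-response curve. GI50: concentration for 50% inhibition of growth. TGI: total growth inhibition.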

Tests used:
Assay in all cases: inhibition of tumour cell growth, NCI panel, 48 h
MOLT-4 leukemia = test system: MOLT-4 leukemia
SF-268 CNS = test system: SF-268 CNS
CCRF-CEM leukemia = test system: CCRF-CEM leukemia
A498 renal = test system: A498 renal
OVCAR-3 ovarian = test system: OVCAR-3 ovarian
MDA-MB-231 breast = test system: MDA-MB-231 breast
DU-145 prostate = test system: DU-145 prostate
HL-60(TB) leukemia = test system: HL-60(TB) leukemia
MCF7 breast = test system: MCF7 breast
MALME-3M melanoma = test system: MALME-3M melanoma

Row | SMILES | TGI (MOLT-4 leukemia) [µM] | TGI (SF-268 CNS) [µM] | TGI (CCRF-CEM leukemia) [µM] | TGI (A498 renal) [µM] | TGI (OVCAR-3 ovarian) [µM] | TGI (MDA-MB-231 breast) [µM] | TGI (DU-145 prostate) [µM] | TGI (HL-60(TB) leukemia) [µM] | TGI (MCF7 breast) [µM] | TGI (MALME-3M melanoma) [µM] | GI50 (MOLT-4 leukemia) [µM] | GI50 (SF-268 CNS) [µM] | GI50 (A498 renal) [µM] | GI50 (OVCAR-3 ovarian) [µM] | GI50 (MDA-MB-231 breast) [µM] | GI50 (DU-145 prostate) [µM] | GI50 (HL-60(TB) leukemia) [µM] | GI50 (MCF7 breast) [µM] | GI50 (MALME-3M melanoma) [µM] | GI50 (CCRF-CEM leukemia) [µM]
1 | CN(Cc1ccccc1)Cn1ccnc1 | > 100 | > 100 | > 71.2 | > 100 | > 100 | 98.1 | > 100 | > 100 | > 100 | 50.4 |  |  |  |  |  |  |  |  |  | 
2 | Cc1cnc2n1S(=O)(=O)c1cc(C(=O)Nc3cccc4nsnc34)c(Cl)cc1S2 | > 100 | 55.6 |  | 34.8 | 30.2 | 30.3 | 67.9 | > 100 | 32.2 | 40.9 | 45.1 | 22.5 | 13.8 | 16.2 | 12.4 | 25.5 | 24.7 | 16.4 | 13.9 | 
3 | CC(C)C[C@H](NC(=O)CNC(=O)c1cc(Cl)ccc1Cl)B(O)O | 0.0797 | 0.22 | > 100 | 0.0336 | 0.0292 | 0.14 | 15.3 | 0.212 | > 52.4 | 0.035 | 0.0187 | 0.0343 | < 0.0158 | < 0.0141 | 0.0302 | < 0.0262 | < 0.0167 | < 0.0196 | < 0.0115 | 0.0203
4 | Cc1c(-c2cnccn2)ssc1=S | > 100 | 99 | > 77.4 | 59.7 | > 100 | > 100 | > 100 | > 77.4 | > 100 | > 100 |  |  |  |  |  |  |  |  |  | 
5 | C=C(c1ccc(OC)c(/C=C/C(=O)c2ccc3c(c2)OCO3)c1)c1cc(OC)c(OC)c(OC)c1 | > 100 | > 100 | > 100 | > 100 | 8.21 | > 100 | > 100 | > 100 | > 100 | > 100 | 3.08 | 3.18 | 2.72 | 2.98 | 5.97 | 5.54 | 2.67 | 0.913 | > 100 | 0.916
6 | COc1ccc(C2(Cl)c3ccccc3N(c3ccccc3)c3ccccc32)cc1 | 11 | 2.88 | 13.8 |  | 1.47 | 2.54 | 2.04 | 4.25 | 1.9 | 1.66 | 1.83 | 0.758 |  | 0.307 | 0.759 | 0.536 | 0.542 | 0.182 | 0.298 | 1.99
7 | O=C1NC(=C(Cl)Cl)/C(=N/S(=O)(=O)N2CCCCC2)N1 |  | 6.53 | 4.92 | 25.4 | 3.78 | 3.42 | 12.2 | 4.52 | > 100 | 3.49 |  | 2.43 | 12.4 | 2.09 | 1.85 | 3.54 | 1.86 | 2.87 | 1.82 | 2.19
